Literature values in patent publication EP4140474A1, “NUT[…] THE REDUCTION OF OSTE[…] AND INFLAMMATION” (Theracell Advanced Biotechnology S.A., priority 2021, dated 2023).

Legend:
MMP13 = MMP13 (Homo sapiens, UniProt P45452); conditions: selective inhibitor of MMP13

Row | Structure (SMILES) | IC50 (lipoxygenase) [nM] | IC50 (MMP13) [nM]
1 | Oc1ccc(C=Cc2cc(O)cc(O)c2)cc1 [resveratrol] | 2700 | –
2 | O=C(/C=C/c1ccc(O)c(O)c1)O[C@H](Cc1ccc(O)c(O)c1)C(=O)O [rosmarinic, rosmarinic acid] | – | 2900
